Reference: US20250264459A1, “IN VITRO ASSAY TO PREDICT CARDIOTOXICITY” (Stemina Biomarker Discovery, Inc., priority 2018, published 2025)
Where two headings read alike, the source gives them in different places. Where a SMILES comes first, the peptide text is derived from it.

Assays:
[1] = system: human iPSC-CM (iCell Cardiomyocytes); experiment: Dose-response cell viability (CellTiter-Fluor) in iPSC-derived cardiomyocytes, maximum acceptable viability exposure; type: cell-based
Experimental: Metabolomic data was acquired to identify non-cytotoxic exposure levels and identify biomarkers of cardiotoxicity from a dose-response experiment using spent medium of iPSC-CM treated with 53 of the compounds in the training set. Briefly, human iPSC-CM (iCell® Cardiomyocytes, cat #R1007, Cellular Dynamics International) were exposed to eight concentrations of each training set compound. Spent media was collected for LC-MS analysis and cell viability was assessed with the CellTiter-Fluor Cell Viability Assay (Promega). Spent media samples were prepared and analyzed using the methods developed in Specific Aim 1. The spent media samples from iPSC-CM treated with 10 representative cardiotoxic and non-cardiotoxic compounds were analyzed with all four LC-MS methods to rank biological significant secretome features by predictive capacity. […]
The goal of the concentration-response phase of biomarker identification was to identify non-cytotoxic exposure levels that change iPSC-CM metabolism. The method included modeling feature response, calculating maximum acceptable viability (MAVE), determining response at Cmax, and MAVE, reviewing the top 4 responding features, and selecting the highest tested exposure with 90% viability.

[2] = cited from earlier work
[3] = system: human iPSC-CM (iCell Cardiomyocytes2); experiment: Spent-media metabolomics (LC-MS) cardiotoxicity prediction models, blinded test set; details: functional vs general/structural cardiotoxicants, at the Exposure (μM) listed per compound in Table 3
[4] = highest exposure tested with ≥90% viability, iPSC-CM, eight concentrations

| Compound | MAVE (Maximum Acceptable Viability Exposure) ([1]; human) [µM] | Cmax Total ([2]; therapeutic total Cmax) [µM] | Cmax Total ([2]; in vivo) [µM] | Functional Model Prediction [3] | MAVE (Maximum Acceptable Viability Exposure) [1, 4] [µM] |
| --- | --- | --- | --- | --- | --- |
| Nc1nc2c(ncn2COCCO)c(=O)[nH]1 [Acyclovir] | 100 | 6.7 |  |  |  |
| CN(CCOc1ccc(NS(C)(=O)=O)cc1)CCc1ccc(NS(C)(=O)=O)cc1 [Dofetilide] | 100 | 0.008 |  |  |  |
| CS(=O)(=O)CCNCc1ccc(-c2ccc3ncnc(Nc4ccc(OCc5cccc(F)c5)c(Cl)c4)c3c2)o1 [Lapatinib] | 10 | 4.18 |  |  |  |
| CCCCCCc1ccc(O)cc1O [Hexylresorcinol] | 30 | 1 |  |  |  |
| CN(C)CCC=C1c2ccccc2CCc2ccccc21 [Amitriptyline] | 1 | 0.95 |  |  |  |
| CCN[C@@H](C)Cc1cccc(C(F)(F)F)c1 [Dexfenfluramine] | 30 |  | 0.4 |  |  |
| C[C@@H]1C/C=C/C=C/C=C/C=C/[C@H](O[C@@H]2O[C@H](C)[C@@H](O)[C@H](N)[C@@H]2O)C[C@@H]2O[C@](O)(C[C@@H](O)C[C@H]3O[C@@H]3/C=C/C(=O)O1)C[C@H](O)[C@H]2C(=O)O [Natamycin] | 30 |  |  |  |  |
| O=C(O)c1ccccc1 [Benzoic Acid] | 100 | 36 |  |  |  |
| CN(C)CCN(Cc1cccs1)c1ccccn1 [Methapyrilene] | 100 | 15.3 |  |  |  |
| CC1(C)S[C@@H]2[C@H](NC(=O)[C@H](N)c3ccc(O)cc3)C(=O)N2[C@H]1C(=O)O [Amoxicillin] | 100 | 17 |  |  |  |
| O=C(O)C(O)C(O)C(=O)O (stereo not shown) [Tartaric Acid] | 100 |  |  |  |  |
| CC(C)(C)c1ccc(C(O)CCCN2CCC(C(O)(c3ccccc3)c3ccccc3)CC2)cc1 (stereo not shown) [Terfenadine] | 3 | 0.3 |  |  |  |
| COc1cc2c(Nc3ccc(Br)cc3F)ncnc2cc1OCC1CCN(C)CC1 [Vandetanib] | 1 | 3.3 |  |  |  |
| CNC(=C[N+](=O)[O-])NCCSCc1ccc(CN(C)C)o1 [Ranitidine] | 100 | 1.7 |  |  |  |
| O=C(O)CC(O)(CC(=O)O)C(=O)O [Citric Acid] | 100 | 128 |  |  |  |
| COc1ccc(C(=O)Nc2ccccc2CCC2CCCCN2C)cc1 (stereo not shown) [Encainide] | 100 | 0.71 |  |  |  |
| CSc1ccc2c(c1)N(CCC1CCCCN1C)c1ccccc1S2 (stereo not shown) [Thioridazine] | 1 |  |  |  |  |
| CC(C)C[C@H](NC(=O)[C@H](Cc1ccccc1)NC(=O)c1cnccn1)B(O)O [Bortezomib] | 0.1 | 0.3 |  |  |  |
| O=c1[nH]cc(F)c(=O)[nH]1 [Fluorouracil] | 100 | 4.6 |  |  |  |

| Compound | MAVE (Maximum Acceptable Viability Exposure) ([1]; human) [µM] | Cmax Total ([2]; therapeutic total Cmax) [µM] | Cmax Total ([2]; in vivo) [µM] | Functional Model Prediction [3] | MAVE (Maximum Acceptable Viability Exposure) [1, 4] [µM] |
| --- | --- | --- | --- | --- | --- |
| CC(=O)[C@]1(O)Cc2c(O)c3c(c(O)c2[C@@H](O[C@H]2C[C@H](N)[C@H](O)[C@H](C)O2)C1)C(=O)c1ccccc1C3=O [Idarubicin] | 0.1 | 0.12 |  |  |  |
| O=C1NCCN1CCN1CCC(c2cn(-c3ccc(F)cc3)c3ccc(Cl)cc23)CC1 [Sertindole] | 0.3 | 0.32 |  |  |  |
| CC(=O)O[C@H]1C(=O)[C@@]2(C)[C@H]([C@H](OC(=O)c3ccccc3)[C@]3(O)C[C@H](OC(=O)[C@H](O)[C@@H](NC(=O)c4ccccc4)c4ccccc4)C(C)=C1C3(C)C)[C@]1(OC(C)=O)CO[C@@H]1C[C@@H]2O [Paclitaxel] | 0.03 |  |  |  |  |
| CN1CCN(C2=Nc3cc(Cl)ccc3Nc3ccccc32)CC1 [Clozapine] | 10 | 0.95 |  |  |  |
| CN(CCOc1ccc(CC2SC(=O)NC2=O)cc1)c1ccccn1 (stereo not shown) [Rosiglitazone] |  |  |  | − |  |
| CCCN1C[C@H](CSC)C[C@@H]2c3cccc4[nH]cc(c34)C[C@H]21 [Pergolide] | 30 | 0.003 |  |  |  |
| CCN(CC)CCNC(=O)c1c(C)[nH]c(/C=C2\C(=O)Nc3ccc(F)cc32)c1C [Sunitinib] | 1 | 0.25 |  |  |  |
| COC(=O)[C@H](Cc1ccccc1)NC(=O)[C@@H](N)CC(=O)O [Aspartame] (H-Asp-Phe-OMe) | 100 | 1 |  |  |  |
| CCN(CC)CCCC(C)Nc1ccnc2cc(Cl)ccc12 (stereo not shown) [Chloroquine] | 3 | 0.96 |  |  |  |
| CCOC(=O)N1CCC(=C2c3ccc(Cl)cc3CCc3cccnc32)CC1 [Loratadine] |  |  |  | − |  |
| COc1cccc2c1C(=O)c1c(O)c3c(c(O)c1C2=O)C[C@@](O)(C(C)=O)C[C@@H]3O[C@H]1C[C@H](N)[C@H](O)[C@H](C)O1 [Daunorubicin] | 0.1 | 89 |  |  |  |
| COC(=O)c1ccc(O)cc1 [Methylparaben] | 100 | 0.23 |  |  |  |
| CC(C)C[C@H](N)C(=O)O [Leucine] | 100 |  |  |  |  |
| COc1cccc2c1C(=O)c1c(O)c3c(c(O)c1C2=O)C[C@@](O)(C(=O)CO)C[C@@H]3O[C@H]1C[C@H](N)[C@H](O)[C@H](C)O1 [Doxorubicin] | 0.1 | 15.3 |  |  |  |
| CCCOC(=O)c1cc(O)c(O)c(O)c1 [Propyl Gallate] | 30 | 3 |  |  |  |
| O=C1c2c(O)ccc(O)c2C(=O)c2c(NCCNCCO)ccc(NCCNCCO)c21 [Mitoxantrone] | 1 |  |  |  |  |
| Cc1nc(Nc2ncc(C(=O)Nc3c(C)cccc3Cl)s2)cc(N2CCN(CCO)CC2)n1 [Dasatinib] | 10 | 0.72 |  |  |  |
| O=C(O)COCCN1CCN(C(c2ccccc2)c2ccc(Cl)cc2)CC1 (stereo not shown) [Cetirizine] |  |  |  | − |  |
| O=C1CN2Cc3c(ccc(Cl)c3Cl)N=C2N1 [Anagrelide] | 30 | 0.06 |  |  |  |

| Compound | MAVE (Maximum Acceptable Viability Exposure) ([1]; human) [µM] | Cmax Total ([2]; therapeutic total Cmax) [µM] | Cmax Total ([2]; in vivo) [µM] | Functional Model Prediction [3] | MAVE (Maximum Acceptable Viability Exposure) [1, 4] [µM] |
| --- | --- | --- | --- | --- | --- |
| CS(=O)(=O)c1ccc(C2=C(c3ccccc3)C(=O)OC2)cc1 [Rofecoxib] | 100 | 1.7 |  |  |  |
| Cc1ccc(NC(=O)c2ccc(CN3CCN(C)CC3)cc2)cc1Nc1nccc(-c2cccnc2)n1 [Imatinib] | 3 |  |  |  |  |
| COc1cc(N)c(Cl)cc1C(=O)NC1CCN(CCCOc2ccc(F)cc2)CC1OC (stereo not shown) [Cisapride] | 100 | 0.18 |  |  |  |
| C#Cc1cccc(Nc2ncnc3cc(OCCOC)c(OCCOC)cc23)c1 [Erlotinib] | 3 | 3.8 |  |  |  |
| CCCCCNC(=N)N/N=C/c1c[nH]c2ccc(OC)cc12 [Tegaserod] | 3 | 0.08 |  |  |  |
| Cc1onc(-c2ccccc2)c1-c1ccc(S(N)(=O)=O)cc1 [Valdecoxib] | 100 | 0.51 |  |  |  |
| C[C@@H]1[C@H](O)[C@@H](C)/C=C/C=C/C=C/C=C/C=C/C=C/C=C/[C@H](O[C@@H]2O[C@H](C)[C@@H](O)[C@H](N)[C@@H]2O)C[C@@H]2O[C@](O)(C[C@@H](O)C[C@@H](O)[C@H](O)CC[C@@H](O)C[C@@H](O)CC(=O)O[C@H]1C)C[C@H](O)[C@H]2C(=O)O [Amphotericin B] |  | 89.8 |  |  | 3 |
| Cc1occc(=O)c1O [Maltol] | 100 | 30 |  |  |  |
| CCN1/C(=C/C=C/C=C/c2sc3ccccc3[n+]2CC)Sc2ccccc21 [Dithiazanine Iodide] | 0.1 | 0.1 |  |  |  |
| CC(C)NCC(O)c1ccc(O)c(O)c1 (stereo not shown) [Isoproterenol] | 100 | 0.01 |  |  |  |
| c1ccc2[nH]c(-c3cscn3)nc2c1 [Thiabendazole] | 100 | 30.8 |  |  |  |
| O=C1O[C@H]([C@@H](O)CO)C(O)=C1O [Ascorbic Acid] | 100 | 36 |  |  |  |
| COc1ccc(CCN2CCC(Nc3nc4ccccc4n3Cc3ccc(F)cc3)CC2)cc1 [Astemizole] | 3 | 0.008 |  |  |  |
| CNC(=O)c1cc(Oc2ccc(NC(=O)Nc3ccc(Cl)c(C(F)(F)F)c3)cc2)ccn1 [Sorafenib] | 3 |  |  |  |  |
| CNCCC=C1c2ccccc2CCc2ccccc21 [Nortriptyline] | 1 | 0.57 |  |  |  |
| O=C(O)CCCC[C@@H]1SC[C@@H]2NC(=O)N[C@@H]21 [Biotin] | 100 | 0.01 |  |  |  |
| Phenylphenol |  | 0.09 |  |  | 100 |
| Arsenic Trioxide |  | 12.1 |  |  | 10 |
| OC[C@@H](O)[C@@H](O)[C@H](O)[C@@H](O)CO [Sorbitol] | 100 | 3.9 |  |  |  |
